Results on 1 molecule are retold here after patent CN109475563A, “蛋白酶抑制剂的长效医药组合物” (Taimed Biologics Inc, priority 2016, dated 2017).

The nature of data set [1]: Rat subcutaneous PK, microparticle vs nanosuspension of TMB-607. In kind it is in vivo. As to conditions: SC.
A short description of data set [2]: Dog PK, intramuscular vs subcutaneous nanosuspension of TMB-607. As to conditions: Fig. 3. Type of data set: in vivo, beagle dog.
Data set [3] in a line: Monkey PK, nanosuspensions of different particle size. In kind it is in vivo.
The nature of data set [4]: PK of injectable nanosized TMB-607 (summary statement). In kind it is in vivo. As to conditions: injectable formulation of nanosized TMB-607; species not stated.
Data set [5] concerns the target HIV-1 protease (HIV-1蛋白酶) (Human immunodeficiency virus type 1 group M subtype B, UniProt P04585). As to conditions: cited from earlier work.
Data set [6] relates to laboratory-adapted virus (实验室适应病毒). As to conditions: 48-week in vitro selection, increasing TMB-607 concentration; cited from earlier work.
Data set [7] concerns single mutations in the protease open reading frame (蛋白酶开放读框). As to conditions: in vitro, site-directed mutagenesis; cited from earlier work.
[8] abbreviates: male beagle dog, 60 mg/kg, particle size about 150 nm, 6 weeks.

Each structure is given as a SMILES string.

With `COC(=O)N[C@H](C(=O)NCCCC[C@@H](CO)N(CC(C)C)S(=O)(=O)c1ccc(N)cc1)C(c1ccccc1)c1ccccc1` [TMB-607], the “duration of plasma level above protein-binding-adjusted EC50” value in data set [1] (nano-sized TMB-607, printed as 247 nm, Fig. 2) amounted to 14 days. In data set [1] (nanosuspension printed as 247 nm, compared with microparticle 2470 nm, Fig. 2), the “duration for which TMB-607 plasma level is maintained” value is > 14 days. In data set [1] (microparticle 2470 nm, Fig. 2 (general description)), the “plasma level above protein-binding-adjusted EC50 for 14 days (in words)” value was “不能”. In addition, the “Cmax in the initial period (in words)” value in data set [1] (rat, microparticle 2470 nm, 16.7 mg/kg) was “引人注目的高Cmax”. Also, the “plasma level above protein-binding-adjusted EC50 for 14 days (in words)” value in data set [1] (rat, microparticle 2470 nm, 16.7 mg/kg, Fig. 2) is given as “不能”. Further, the “release profile (in words)” value in data set [1] (rat, nanosuspension 240 nm, 23.5 mg/kg) is on record as “持续的释放曲线”. In data set [1] (rat, nanosuspension 240 nm, doses printed for microparticle and nanosuspension 16.7 and 23.5 mg/kg respectively, Fig. 2), the “duration of plasma level above protein-binding-adjusted EC50” value is 14 days. Also, in data set [2] (setting [8]), the “AUC0-t, SC versus IM (in words)” value is reported as “没有在AUC0-t值中观察到明显的差异” and the “Cmax, IM versus SC (in words)” value is recorded as “肌肉给药路径的Cmax值高于皮下给药路径的Cmax值”. Further, the “plasma level after single IM or SC injection (in words)” value in data set [2] (single IM or SC injection of nanosuspension) is given as “延长了TMB-607的血浆水平”. For the same molecule, the “plasma level and duration of action, smaller particle size (in words)” value in data set [3] (113 nm compared with 214 nm) is “较高的血浆水平和较长的作用时间”. Moreover, in data set [3] (monkey, 60 mg/kg, 113 nm versus 214 nm, Fig. 4), the “plasma level and duration of action, smaller particles (in words)” value is recorded as “较高的血浆水平和较长的作用时间”. For the same molecule, in data set [3] (monkey, injected nanosuspension, 60 mg/kg, 214 nm versus 113 nm, 4 weeks), the “AUC0-t on reducing particle size (in words)” value was “AUC0-t和t1/2均大致增加”. In addition, the “plasma level (in words)” value in data set [3] (particle sizes 214 nm and 113 nm) was “都可以延长血浆水平”. Also, in data set [4], the “duration of stable plasma levels” value was > 1 month. Moreover, in data set [5], the “inhibition of HIV-1 protease (potency, in words)” value is “效用 and 有效”; the “selectivity in inhibiting HIV-1 protease (in words)” value was “选择性 and 有选择性”. The “mutations selected in protease open reading frame” value in data set [6] is reported as “四个突变”. For the same molecule, the “resistance caused by single mutation (in words)” value in data set [7] is “单一突变不会导致对TMB-607的明显抗药性”.
